The values below come from patent US8409560B2, “Solid dispersion formulations and methods of use thereof” (Zalicus Pharmaceuticals Ltd., priority 2011, dated 2013).

A short description of data set [1]: Adverse effects at doses of up to 1,600 mg. Format: in vivo. From the text: Yet, compound 1 is also known to have decreased oral bioavailability in the fasted state, as compared to the fed state. Accordingly, the invention provides formulations to increase the oral bioavailability or to reduce patient-to-patient variability in pharmacokinetic behavior of compound 1, compound 2, or a salt thereof. Generally, amorphous forms of a drug are more readily absorbed within the gastric and intestinal system and, thus, have increased bioavailability, as compared to crystalline forms of the drug. These formulations include use of a solid dispersion system to provide a matrix polymer capable of maintaining therapeutically effective amounts of compound 1, compound 2, or a salt thereof, in an amorphous form.

Data set [2] in a line: Dissolution of solid dispersions, gastric-to-FaSSIF media transition at 13 minutes. The data set is classed as physicochemical. As to conditions: unformulated; pH 1.0-to-6.5. The procedure:
FIGS. 1A-1H are graphs showing the dissolution rate in gastric media for solid dispersion formulations having 20% (w/w) loading of compound 1 and a gastric-to-FaSSIF (pH 1.0-to-6.5) media transition at 13 minutes. […]
Various formulations were tested to reduce precipitation. As shown in FIGS. 1A-1H, solubility was measured for the following formulations: carboxymethylethyl cellulose (CMEC, FIG. 1A), cellulose acetate phthalate (CAP, FIG. 1B), hydroxypropylmethyl cellulose acetate succinate M grade (HPMCAS-M, FIG. 1C), polyvinyl acetate phthalate (PVAP, FIG. 1D), methacrylic acid-methyl methacrylate copolymer (Eudragit® L 100, FIG. 1E), polyethylene glycol-polyvinylcaprolactam-polyvinylacetate copolymer (Soluplus®, FIG. 1F), hydroxypropylmethyl cellulose phthalate (HPMCP-H55, FIG. 1G), and polyvinylpyrrolidone vinylacetate copolymer (PVP-VA, FIG. 1H). […]
Further tests were conducted with different % loading of compound 1. Dissolution rates were measured for formulations have 35% (w/w) loading (FIGS. 2A-2C) and 50% (w/w) loading (FIGS. 3A-3D). CAP, HPMCAS-M, Eudragit® L 100, and PVAP were further analyzed for these tests. […]

With `O=C(CC(c1ccccc1)c1ccccc1)N1CCN(C(c2ccccc2)c2ccccc2)CC1` [Compound 1, 1-(4-benzhydrylpiperazin-1-yl)-3,3-diphenylpropan-1-one], the adverse effects entry in data set [1] is recorded as “no adverse effects”. Also, the “behaviour in FaSSIF media following exposure to gastric media” value in data set [2] was “rapidly precipitated”.
